One test concerns DU 145. As to the kind of experiment: Anti-neoplasmic activity against xenograft in hairless mice. Format: in vivo. The gist of the method:
(§1)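 Female 5-week nude mice (Crl:Nu-Foxn1nu) implanted s.c. with 5×10^6 tumour cells, dosed from ~100–200 mm^3 tumours at three doses, i.v. (some series i.p.) twice weekly (thrice for fast tumours) for 4 weeks. Calipered volumes gave TGI% = 100 − (ΔVT/ΔVC × 100), scored after dosing ended.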

In a further test the test system is H T29. The test is described as above. The conditions noted are these: series 3, i.v., total 24 mg/kg, day 20. Format: in vivo. The gist of the method:
(§2)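 TGI calculated as 100−(ΔVT/ΔVC×100), using mean volume change from therapy start in treated versus control mice. Xenografts: s.c. 5×10^6 cells, female Crl:Nu-Foxn1nu mice aged 5 weeks. Compounds dosed i.v. twice weekly for 4 weeks at three doses; tumours measured twice weekly.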

The test system of another test is H 460. The description is as above. Format: in vivo. The gist of the method:
(§3)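 Human tumour cells (5×10^6 per mouse) implanted subcutaneously in 5-week female nude mice; randomised at ~100–200 mm^3 tumour volume. Dosing i.v. or i.p., twice weekly (thrice for fast growers) over 4 weeks, three dose levels. Growth inhibition computed from volume change versus controls.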

A further test deals with Mia Pa Ca 2. Described as above. Format: in vivo. The gist of the method:
as §2

Another test relates to UM-UC-3. As to the kind of experiment: Cytotoxic activity in vitro, SRB. Format: cell-based, human. The gist of the method:
(§4)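 Human tumour cells are exposed to the bis-acridines, and growth is then quantified by sulforhodamine B staining as recommended by the NCI. The EC50 values derive from comparison with control cells and mark half-maximal inhibition of proliferation.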

A further test has as its system AsPC-1. As to the kind of experiment: Cytotoxic activity in vitro, SRB. Format: cell-based, human. The gist of the method:
as §4

A further test deals with PC-3. As to the kind of experiment: Cytotoxic activity in vitro, SRB. Format: cell-based, human. The gist of the method:
as §4

A further test has as its system H-460. As to the kind of experiment: Cytotoxic activity in vitro, SRB. Format: cell-based, human. The gist of the method: as §4
For another test, the system named is HCT-116. As to the kind of experiment: Cytotoxic activity in vitro, SRB. Format: cell-based, human. The gist of the method:
as §4

A further test has as its system MDA-MB-231. As to the kind of experiment: Cytotoxic activity in vitro, SRB. Format: cell-based, human. The gist of the method:
as §4

For another test, the system named is MCF-7. As to the kind of experiment: Cytotoxic activity in vitro, SRB. Format: cell-based, human. The gist of the method: as §4
Another test deals with PANC-1. As to the kind of experiment: Cytotoxic activity in vitro, SRB. Format: cell-based, human. The gist of the method:
as §4

A further test has as its system MiaPaCa-2. As to the kind of experiment: Cytotoxic activity in vitro, SRB. Format: cell-based, human. The gist of the method: as §4
A further test concerns DU-145. As to the kind of experiment: Cytotoxic activity in vitro, SRB. Format: cell-based, human. The gist of the method: as §4
The subject of a further test is HT-29. As to the kind of experiment: Cytotoxic activity in vitro, SRB. Format: cell-based, human. The gist of the method: as §4
In another test the test system is UM UC 3. As to the kind of experiment: Anti-neoplasmic activity against xenograft in hairless mice. Format: in vivo. The conditions noted are these: series 11, i.v., day 23. The gist of the method:
as §2

For a further test, the system named is PANC 1. Described as above. Format: in vivo. The gist of the method:
as §3

The next test has as its system HCT 116. Described as above. Format: in vivo. The settings on record: series 7, i.v., day 15. The gist of the method: as §2
In a further test the test system is Capan-2. As to the kind of experiment: Cytotoxic activity in vitro, SRB. Format: cell-based, human. The gist of the method: as §4
The subject of a further test is BxPC-3. As to the kind of experiment: Cytotoxic activity in vitro, SRB. Format: cell-based, human. The gist of the method: as §4
A further test concerns AsPC 1. As to the kind of experiment: Anti-neoplasmic activity against xenograft in hairless mice. Format: in vivo. The gist of the method:
as §2

Another test deals with MDA MB 231. The test is described as above. Format: in vivo. The settings on record: series 19, i.v. The gist of the method: as §2
The next test has as its system BXPC 3. The description is as above. Format: in vivo. The gist of the method:
as §2

The next test concerns PC 3. The test is described as above. Format: in vivo. The settings on record: series 12, i.p., single 1 mg/kg, total 8 mg/kg, day 39. The gist of the method:
as §1

Structures are written as SMILES. “And” between values parts separate entries of the source, which are not always exact repeats. Equal entries are not always repeated. A value given as a limit tells only on which side of the number the result lay.

As to `O=c1c2cc(O)ccc2[nH]c2c([N+](=O)[O-])ccc(NCCCN3CCN(CCCNc4c5ccccc5nc5cccc([N+](=O)[O-])c45)CC3)c12` [C-1941], the “TGI [%] [100 − (ΔVT/ΔVC × 100]” value in the test with DU 145 (series 2, i.p., single 4 mg/kg, total 24 mg/kg, day 35) worked out at 52%; in the test on H T29 (single 3 mg/kg), 26%; in the test on H T29 (single 4 mg/kg), 35%; in the test with H 460 (series 4, i.v., single 15 mg/kg, total 30 mg/kg, day 14), 24%; with Mia Pa Ca 2 (series 12, i.p., single 4 mg/kg, total 32 mg/kg, day 26), 30%. For the same compound, the EC50 with UM-UC-3 is 33 nM; with AsPC-1, 210 nM; in the test on PC-3, 31 nM; with H-460, 20 nM; in the test with HCT-116, 11 nM; in the test on MDA-MB-231, 12 nM. The EC50 in the test with MCF-7 amounted to 61 nM; with PANC-1 it was 43 nM; in the test with MiaPaCa-2, 12 nM; with DU-145, 20 nM; with HT-29, 38 nM.

With `O=c1c2cc(O)ccc2n2cnc3ccc(NCCCN4CCN(CCCNc5c6ccccc6nc6cccc([N+](=O)[O-])c56)CC4)c1c32` [C-2027, 1-[3-(8-hydroxy-imidazo[4,5,1-de]-acridin-6-on-5-yl)aminopropyl]-4-[3′-(1′-nitroacridin-1-yl)-aminopropyl]piperazine], the “TGI [%] [100 − (ΔVT/ΔVC × 100]” value in the test on UM UC 3 (single 4 mg/kg, total 28 mg/kg) is recorded as 47%; in the test on PANC 1 (series 10, i.v., single 2 mg/kg, total 10 mg/kg, day 45), 83%; in the test with PANC 1 (series 14, i.v., single 1 mg/kg, total 10 mg/kg, day 45) it was 23%; in the test on PANC 1 (series 30, i.v., single 1 mg/kg, total 8 mg/kg, day 32, *at least half of animals did not survive), 51* %; in the test with HCT 116 (single 2.5 mg/kg, total 15 mg/kg), 15%; in the test with Mia Pa Ca 2 (series 12, i.v., single 2 mg/kg, total 16 mg/kg, day 26) it was 29%. The EC50 in the test with UM-UC-3 amounted to 18 nM; in the test on AsPC-1, 191 nM; with PC-3 it was 35 nM; in the test with H-460, 17 nM; in the test with HCT-116, 20 nM; with MDA-MB-231 it was 19 nM. For the same compound, the 50% effective concentration (EC50) is 43 nM with Capan-2; 62 nM in the test with MCF-7; 24 nM with PANC-1; 164 nM in the test with BxPC-3; 21 nM with MiaPaCa-2; 20 nM in the test with DU-145. A half-maximal effect in the test with HT-29 (EC50) was put at 81 nM.

On to `CN(CCCNc1c2ccccc2nc2cccc([N+](=O)[O-])c12)CCCNc1ccc2ncn3c4ccccc4c(=O)c1c23` [C-2028, 9-{N-[(imidazo[4,5,1-de]-acridin-6-on-5-yl)aminopropyl]-N-methylaminopropylamino}-1′-nitroacridine], for which the “TGI [%] [100 − (ΔVT/ΔVC × 100]” value in the test on DU 145 (series 13, i.v., single 4 mg/kg, total 32 mg/kg, day 40) is on record as 46%; with AsPC 1 (series 23, i.v., single 6 mg/kg, total 48 mg/kg, day 46), 35%; with UM UC 3 (single 6 mg/kg, total 42 mg/kg), 54%; with PANC 1 (series 10, i.v., single 1 mg/kg, total 10 mg/kg, day 31), 71%; with PANC 1 (series 14, i.v., single 4 mg/kg, total 36 mg/kg, day 45) it was 90%; with PANC 1 (series 29, i.v., single 4 mg/kg, total 20 mg/kg, day 36), 59%. The “TGI [%] [100 − (ΔVT/ΔVC × 100]” value is reported as 82% in the test with PANC 1 (series 32, i.v, single 2 mg/kg, total 16 mg/kg, day 40); 44% in the test on MDA MB 231 (single 2 mg/kg, total 16 mg/kg, day 25); 34% with HCT 116 (single 4 mg/kg, total 24 mg/kg); 31% in the test on H 460 (series 16, i.v., single 1 mg/kg, total 5 mg/kg, day 28); 64% with BXPC 3 (series 21, i.v., single 6 mg/kg, total 30 mg/kg, day 37); 43% in the test with BXPC 3 (series 33, i.v., single 4 mg/kg, total 32 mg/kg, day 36). Moreover, the “TGI [%] [100 − (ΔVT/ΔVC × 100]” value is listed as 30% in the test on PC 3; 52% in the test with Mia Pa Ca 2 (series 12, i.v., single 6 mg/kg, total 42 mg/kg, day 36); 68* % in the test with Mia Pa Ca 2 (series 28, i.v., single 2 mg/kg, total 8 mg/kg, day 11, *at least half of animals did not survive). In addition, the TGI was less than 50% in the test on AsPC 1 (ASP-1, threshold activity); 71% and 90% and 82% in the test with PANC 1 (PANC-1 cancer, three consecutive experimental runs); 64% in the test on BXPC 3 (BXPC-3, significant activity); less than 50% with Mia Pa Ca 2 (MiaPa Ca2, threshold activity). The EC50 with UM-UC-3 was 10 nM; in the test on AsPC-1, 61 nM; in the test on PC-3, 28 nM; with H-460, 15 nM; in the test on HCT-116 it was 17 nM; in the test on MDA-MB-231 it was 17 nM. The EC50 was 11 nM in the test on Capan-2; 53 nM in the test on MCF-7; 24 nM with PANC-1; 74 nM with BxPC-3; 79 nM with MiaPaCa-2; 23 nM in the test with DU-145. The same compound displayed an EC50 with HT-29 of 37 nM.

Turning to `Cc1ccc(NCCCN2CCN(CCCNc3c4ccccc4nc4cccc([N+](=O)[O-])c34)CC2)c2c(=O)c3ccccc3[nH]c12` [C-1973, 1-[3-(4-methyl-9(10H)-acridono-1-yl)aminopropyl]-4-3′-[(1′-nitroacridin-1-yl)-aminopropyl]piperazine], the “TGI [%] [100 − (ΔVT/ΔVC × 100]” value was determined as 90% with DU 145 (series 13, i.v., single 4 mg/kg, total 32 mg/kg, day 63); 51% in the test on DU 145 (series 18, i.v., single 1 mg/kg, total 8 mg/kg, day 33); 46% with UM UC 3 (single 2 mg/kg, total 14 mg/kg); 75% in the test with PANC 1 (series 31, i.v., single 2 mg/kg, total 16 mg/kg, day 37); 30% in the test on MDA MB 231 (single 1 mg/kg, total 8 mg/kg, day 50); 42% with H 460 (series 16, i.v., single 2 mg/kg, total 10 mg/kg, day 21). For the same compound, the EC50 in the test on UM-UC-3 came out at 9.5 nM; in the test with AsPC-1, 79 nM; with PC-3, 48 nM; in the test on H-460, 5 nM; in the test with HCT-116, 19 nM; with MDA-MB-231, 28 nM. The EC50 turned out to be 113 nM with MCF-7; 27 nM in the test on PANC-1; 59 nM in the test on BxPC-3; 16 nM in the test on MiaPaCa-2; 20 nM in the test on DU-145; 23 nM in the test on HT-29.

For orientation: EC50 means the concentration giving half of the maximal effect. Read a high EC50 as weaker potency. The term TGI denotes the reduction of tumour growth relative to the control group. A lower TGI goes with little slowing of growth.

The values above are taken from patent publication US10202349B2, “Asymmetric bis-acridines with antitumour activity and their uses” (POLITECHNIKA GDAŃSKA, priority 2015, dated 2019).
